Tests used:
C. jejuni 81-176 [1] = experiment: Tracking the acute colonization with C. jejuni in stool of gavaged rats; format: in vivo, Male Sprague-Dawley rats
Procedure: Male Sprague-Dawley rats (n=108) (200g) were quarantined for 10 days. Subsequently, fresh stool was collected by stroking the anus. Stool was cultured for C. jejuni on Campylobacter agar (BD Diagnostics, Franklin Lakes, N.J.). This was conducted to confirm the absence of infection or colonization of animals with C. jejuni prior to starting the study. […] In the first group (n=54), the rats were gavaged with 1 mL of a 5% solution of bicarbonate. This was given to acutely reduce gastric acidity. Subsequently, the rats were gavaged with a 1 mL suspension of 10^8 cfu/mL C. jejuni 81-176 in Campylobacter broth (C+/R− group). In the second group (n=54), the rats were gavaged with a 1 mL solution of rifaximin (200 mg) (C+/R+ group). The following day, the C+/R+ group received 3 sequential gavages. The first was another 1 mL dose of rifaximin. One hour later, they were gavaged with a 1 mL solution of 5% bicarbonate followed by a third gavage consisting of a 1 mL suspension of 10^8 cfu/mL C. jejuni 81-176 in Campylobacter broth. The following day, the C+/R+ group received a third and final gavage of 200 mg of rifaximin. After completion of the gavage, fresh stool was collected daily from all rats (both groups) and cultured for the presence of C. jejuni on Campylobacter agar. The number of days to first detectable C. jejuni in stool was recorded. Once colonization was noted, daily stool was cultured until 2 consecutive days with no detectable C. jejuni was observed. This was recorded as the time to C. jejuni clearance. In the post-infectious phase, the time to initial colonization, time for clearance and total duration of shedding were determined and compared between the C+/R− and C+/R+ groups. This was compared by Wilcoxon rank-sum test.

Shigella = conditions: humans, recent study (16); cited from earlier work
C. jejuni 81-176 [2] = experiment: Determination of a post-infectious phenotype (stool form, % stool weight) 3 months after C. jejuni clearance; format: in vivo, Male Sprague-Dawley rats
Procedure: Male Sprague-Dawley rats (n=108) (200g) were quarantined for 10 days. Subsequently, fresh stool was collected by stroking the anus. Stool was cultured for C. jejuni on Campylobacter agar (BD Diagnostics, Franklin Lakes, N.J.). This was conducted to confirm the absence of infection or colonization of animals with C. jejuni prior to starting the study. […] In the first group (n=54), the rats were gavaged with 1 mL of a 5% solution of bicarbonate. This was given to acutely reduce gastric acidity. Subsequently, the rats were gavaged with a 1 mL suspension of 10^8 cfu/mL C. jejuni 81-176 in Campylobacter broth (C+/R− group). In the second group (n=54), the rats were gavaged with a 1 mL solution of rifaximin (200 mg) (C+/R+ group). The following day, the C+/R+ group received 3 sequential gavages. The first was another 1 mL dose of rifaximin. One hour later, they were gavaged with a 1 mL solution of 5% bicarbonate followed by a third gavage consisting of a 1 mL suspension of 10^8 cfu/mL C. jejuni 81-176 in Campylobacter broth. The following day, the C+/R+ group received a third and final gavage of 200 mg of rifaximin. After C. jejuni clearance was determined, the rats were housed for an additional 3 months (90 days). At 90 days, fresh stool was collected for 3 consecutive days. The stool was graded for consistency. To do this, a modified Bristol-like stool score was used. In this score, stool was graded as normal (1), soft and poorly formed (2), or watery (3). The stool was then weighed and air dried for 5 days followed by oven drying at 160° C. for 1 hour. The stool was reweighed and a % stool wet weight was determined. After completion of the study, the rats were euthanized by CO2 asphyxiation, weighed, and a laparotomy was performed. During the laparotomy, predefined segments of duodenum, jejunum, ileum, left colon, and rectum were resected, as previously described (12). Subsequently, the contents of each segment were cultured for the presence of C. jejuni. At the end of 3 months, the stool form for 3 days was averaged and then the two groups were compared. In another analysis, the number of days with normal stool in 3 days was determined and compared between groups. Finally, the variance in stool form over 3 days was also determined and compared between groups. The comparison was done by Wilcoxon rank-sum test.

Q: Which Longest colonization (C. jejuni 81-176 [1]; C+/R+ group) does the source give for `CO[C@H]1/C=C/O[C@@]2(C)Oc3c(C)c(O)c4c(O)c(c5c(nc6cc(C)ccn65)c4c3C2=O)NC(=O)/C(C)=C\C=C\[C@H](C)[C@H](O)[C@@H](C)[C@@H](O)[C@@H](C)[C@H](OC(C)=O)[C@@H]1C` [rifaximin] here?
A: The Longest colonization was 21 days.

Q: What about the “Rats with at least one day of detectable C. jejuni in stool (percent)” value (C. jejuni 81-176 [1]; C+/R+ group of 54 rats, P=0.016 vs C+/R−) of the same compound?
A: The value was 98%.

Q: And the “Rats with at least one day of detectable C. jejuni in stool (number)” value (C. jejuni 81-176 [1]; of 54 rats in the C+/R+ group, P=0.016 vs C+/R−)?
A: The value was 53 rats.

Q: What about the “Detection of C. jejuni in stool in the acute phase (in words)” value (C. jejuni 81-176 [1]; rifaximin prophylaxis, rats) of the same compound?
A: The value was “did not prevent C. jejuni from being detected in stool”.

Q: And the “Time to first detectable C. jejuni” value (C. jejuni 81-176 [1]; stool culture, number of days after gavage, rifaximin 200 mg gavage on 3 days around inoculation, P<0.0001 vs C+/R−)?
A: The value was 1.3 ± 0.4.

Q: And the “Prevention of illness by prophylaxis of a Shigella infection (in words)” value (Shigella)?
A: The value was “able to prevent illness”.

Q: What about the “Average % of stool dry weight” value (C. jejuni 81-176 [2]; 3 months after clearance, 3 day average, P NS) of the same compound?
A: Its value is 61.1 +/− 3.8%.

Q: What about the “Daily variability of Dry Weight” value (C. jejuni 81-176 [2]; 3 months after clearance, over 3 days, P<0.01) of the same compound?
A: The value was 4.1 +/− 2.3.

Q: And the “Number of bowel movements normal in form out of 3 days (FIG. 2, in words)” value (C. jejuni 81-176 [2]; C+/R+ versus C+/R−, 3 months after clearance)?
A: Its value is “closer to having perfectly normal bowel function”.

Q: What about the “Daily Variability of Stool Consistency” value (C. jejuni 81-176 [2]; over 3 days, 3 months after clearance, P<0.01) of the same compound?
A: The value was “.24 +/− 0.5”.

Q: What about the “Long term effects of C. jejuni on the bowel (in words)” value (C. jejuni 81-176 [2]; rifaximin prophylaxis, stool form and % wet weight) of the same compound?
A: Its value is “reduced the long term effects of C. jejuni on the bowel”.

Q: And the “Average Stool Consistency (Based on Bristol Stool Scale)” value (C. jejuni 81-176 [2]; score 1 normal, 2 soft and poorly formed, 3 watery, 3 day average, 3 months after clearance, P<0.00001)?
A: Its value is 1.1 +/− 0.3.

— patent US20110294726A1, “ANTIBIOTIC THERAPY TO REDUCE THE LIKELIHOOD OF DEVELOPING POST-INFECTIOUS IRRITABLE BOWEL SYNDROME” (CEDARS-SINAI MEDICAL CENTER, priority 2009, published 2011)
